Key:
[1] = tested on: mouse macrophage cell line RAW264.7 cells; assay: Suppressive action on expression caused by gene induction by LPS stimulation (DNA Chip); assay type: cell-based; conditions: 100 nM + LPS 10 ng/mL, 6 hr
Experimental: A suppressive effect of test compound 1 (compound 72 of • Reference Example B66) on the production of various mediators by lipopolysaccharide (LPS), which is a TLR4 agonist, in mouse macrophage cell line RAW264.7 cells was examined. The day before the experiment, the cells were suspended to 5×10^5 cells/mL in RPMI1640 medium supplemented with 10% inactivated fetal bovine serum, plated on a plate and incubated at 37° C., 5% CO2/95% air overnight. The medium was changed to RPMI1640 medium supplemented with 1% inactivated fetal bovine serum, and test compound 1 (final concentration 100 nM) and LPS (final concentration 10 ng/mL) were added. After culture for 6 hr, RNA was prepared by a conventional method and gene was analyzed using DNA Chip (Mu73A, Affimetrix) and Gene Spring ver. 4. The test substance was dissolved in N,N-dimethylformamide to 10 mM and diluted with a medium.

[2] = tested on: mouse macrophage cell line RAW264.7 cells; assay: Inhibitory action on intracellular signal transduction after LPS stimulation (Bioplex phosphorylated protein assay); assay type: cell-based; conditions: LPS 10 ng/mL; 1, 3, 10, 20, 30 min; FIG. 1
Text: FIG. 1-1 is a graph showing the effect of test compound 1 on phosphorylated protein (ATF2) after LPS addition in mouse macrophage cells. An average of triplicate measurement values is shown, mean±standard error (Experimental Example 5, n=3).
FIG. 1-2 is a graph showing the effect of test compound 1 on phosphorylated protein (JNK) after LPS addition in mouse macrophage cells. An average of triplicate measurement values is shown, mean±standard error (Experimental Example 5, n=3).
FIG. 1-3 is a graph showing the effect of test compound 1 on phosphorylated protein (p38MAPK) after LPS addition in mouse macrophage cells. An average of triplicate measurement values is shown, mean±standard error (Experimental Example 5, n=3).
FIG. 1-4 is a graph showing the effect of test compound 1 on phosphorylated protein (IκBα) after LPS addition in mouse macrophage cells. An average of triplicate measurement values is shown, mean±standard error (Experimental Example 5, n=3). […]
A suppressive effect of test compound 1 (compound 72 of • Reference Example B66) on the production of various cytokines by lipopolysaccharide (LPS), which is a TLR4 agonist, using mouse macrophage cell line RAW264.7 cells was examined. […] The supernatant was recovered, and phosphorylated protein was quantified using Bioplex phosphorylated protein assay (Bio-Rad). […]

SMILES: CCOC(=O)C1=CCCC[C@H]1S(=O)(=O)Nc1ccc(F)cc1Cl [test compound 1, ethyl (6R)-6-[(2-chloro-4-fluoroanilino)sulfonyl]-1-cyclohexene-1-carboxylate]
- gene variation by LPS stimulation ([1]; all genes analyzed that showed variation by LPS): suppressed almost all the gene variation analyzed
- expression of mRNA (fluorescence intensity): MMP-9 ([1]; control 0, LPS 3571.5): 352.6
- expression of mRNA (fluorescence intensity): bcl-3 ([1]; control 0, LPS 7512.6): 158.7
- expression of mRNA (fluorescence intensity): Guanylate binding protein-2 ([1]; control 0, LPS 8931.2): 19.4
- expression of mRNA (fluorescence intensity): RANTES ([1]; control 0, LPS 12030.1): 34.8
- expression of mRNA (fluorescence intensity): IL-1 beta ([1]; control 0, LPS 18712.2): 424.9
- expression of mRNA (fluorescence intensity): Cytokine inducible SH2-containing protein ([1]; control 0, LPS 22669.3): 2092.5
- expression of mRNA (fluorescence intensity): MCP-3 ([1]; control 2.4, LPS 3159.0): 46.5
- expression of mRNA (fluorescence intensity): Adenosine A2b receptor ([1]; control 2.7, LPS 2092.2): 141.9
- expression of mRNA (fluorescence intensity): inducible nitric oxide synthase ([1]; control 9.3, LPS 1251.6): 125.9
- expression of mRNA (fluorescence intensity): COX-2 ([1]; control 24.4, LPS 13981.9): 71.9
- expression of mRNA (fluorescence intensity): CCR1 ([1]; control 26.5, LPS 1877.4): 137.9
- expression of mRNA (fluorescence intensity): IL-6 ([1]; control 26.7, LPS 5345.6): 0
- expression of mRNA (fluorescence intensity): IP-10 ([1]; control 40.1, LPS 12954.7): 30.7
- expression of mRNA (fluorescence intensity): Histidine decarboxylase ([1]; control 44.3, LPS 4472.2): 21.1
- expression of mRNA (fluorescence intensity): IL-4 receptor ([1]; control 84.4, LPS 7015.8): 160.6
- expression of mRNA (fluorescence intensity): MCP-1 ([1]; control 115.6, LPS 24184.7): 336.8
- expression of mRNA (fluorescence intensity): Fas antigen ([1]; control 132.7, LPS 2507.5): 202.7
- expression of mRNA (fluorescence intensity): A20 ([1]; control 143.9, LPS 1044.3): 204.0
- expression of mRNA (fluorescence intensity): IL-1 receptor antagonist ([1]; control 156.9, LPS 21942.3): 538.2
- expression of mRNA (fluorescence intensity): P2X4 ([1]; control 193.0, LPS 1239.3): 227.0
- expression of mRNA (fluorescence intensity): plasminogen activator inhibitor ([1]; control 199.1, LPS 15207.5): 67.5
- expression of mRNA (fluorescence intensity): TNF receptor associated factor ([1]; control 213.6, LPS 2457.3): 311.4
- expression of mRNA (fluorescence intensity): IL-10 ([1]; control 221.8, LPS 6617.9): 128.1
- expression of mRNA (fluorescence intensity): Janus kinase 2 ([1]; control 228.3, LPS 2175.1): 310.9
- expression of mRNA (fluorescence intensity): argininosuccinate synthetase ([1]; control 376.7, LPS 8623.2): 478.9
- expression of mRNA (fluorescence intensity): Major histocompatibility complex ([1]; control 378.5, LPS 3399.6): 353.0
- expression of mRNA (fluorescence intensity): serum amyloid A ([1]; control 393.1, LPS 24253.2): 1041.0
- expression of mRNA (fluorescence intensity): Caspase-11 ([1]; control 436.0, LPS 6975.7): 763.5
- expression of mRNA (fluorescence intensity): Phosphatase PAC1 ([1]; control 653.7, LPS 12520.7): 765.9
- expression of mRNA (fluorescence intensity): G-CSF ([1]; control 698.4, LPS 18440.5): 844.9
- expression of mRNA (fluorescence intensity): IL-18 ([1]; control 708.7, LPS 4881.4): 429.4
- expression of mRNA (fluorescence intensity): MIP-2 ([1]; control 819.2, LPS 12542.9): 3055.0
- expression of mRNA (fluorescence intensity): TNF receptor ([1]; control 906.2, LPS 24864.6): 3467.0
- expression of mRNA (fluorescence intensity): Fc receptor ([1]; control 1244.4, LPS 20683.4): 982.5
- expression of mRNA (fluorescence intensity): Interferon regulatory factor ([1]; control 1491.7, LPS 7554.9): 1356.3
- expression of mRNA (fluorescence intensity): Galectin-9 ([1]; control 1904.3, LPS 19639.3): 3639.2
- phosphorylated protein after LPS addition (ATF2, JNK, p38MAPK, IκBα, ERK1/2, p90RSK, STAT2, p70 S6 Kinase) [2]: suppressed phosphorylation of all examined proteins involved in LPS signal transduction

From patent publication US20090062355A1, “Pharmaceutical Product” (Takeda Pharmaceutical Company Limited, priority 2006, published 2009)
